Experimental data as given in publication PMC4980604 (Scientific Reports, 2016).

Target: T1, P-glycoprotein (P-gp) (Homo sapiens, UniProt P08183)
T1 construct: gene ABCB1; P-gp membranes (Pgp-Glo assay system)
Assay: Pgp-Glo ATPase stimulation at […] (membranes)
Assay type: biochemical

T1 sequence (P08183 whole entry): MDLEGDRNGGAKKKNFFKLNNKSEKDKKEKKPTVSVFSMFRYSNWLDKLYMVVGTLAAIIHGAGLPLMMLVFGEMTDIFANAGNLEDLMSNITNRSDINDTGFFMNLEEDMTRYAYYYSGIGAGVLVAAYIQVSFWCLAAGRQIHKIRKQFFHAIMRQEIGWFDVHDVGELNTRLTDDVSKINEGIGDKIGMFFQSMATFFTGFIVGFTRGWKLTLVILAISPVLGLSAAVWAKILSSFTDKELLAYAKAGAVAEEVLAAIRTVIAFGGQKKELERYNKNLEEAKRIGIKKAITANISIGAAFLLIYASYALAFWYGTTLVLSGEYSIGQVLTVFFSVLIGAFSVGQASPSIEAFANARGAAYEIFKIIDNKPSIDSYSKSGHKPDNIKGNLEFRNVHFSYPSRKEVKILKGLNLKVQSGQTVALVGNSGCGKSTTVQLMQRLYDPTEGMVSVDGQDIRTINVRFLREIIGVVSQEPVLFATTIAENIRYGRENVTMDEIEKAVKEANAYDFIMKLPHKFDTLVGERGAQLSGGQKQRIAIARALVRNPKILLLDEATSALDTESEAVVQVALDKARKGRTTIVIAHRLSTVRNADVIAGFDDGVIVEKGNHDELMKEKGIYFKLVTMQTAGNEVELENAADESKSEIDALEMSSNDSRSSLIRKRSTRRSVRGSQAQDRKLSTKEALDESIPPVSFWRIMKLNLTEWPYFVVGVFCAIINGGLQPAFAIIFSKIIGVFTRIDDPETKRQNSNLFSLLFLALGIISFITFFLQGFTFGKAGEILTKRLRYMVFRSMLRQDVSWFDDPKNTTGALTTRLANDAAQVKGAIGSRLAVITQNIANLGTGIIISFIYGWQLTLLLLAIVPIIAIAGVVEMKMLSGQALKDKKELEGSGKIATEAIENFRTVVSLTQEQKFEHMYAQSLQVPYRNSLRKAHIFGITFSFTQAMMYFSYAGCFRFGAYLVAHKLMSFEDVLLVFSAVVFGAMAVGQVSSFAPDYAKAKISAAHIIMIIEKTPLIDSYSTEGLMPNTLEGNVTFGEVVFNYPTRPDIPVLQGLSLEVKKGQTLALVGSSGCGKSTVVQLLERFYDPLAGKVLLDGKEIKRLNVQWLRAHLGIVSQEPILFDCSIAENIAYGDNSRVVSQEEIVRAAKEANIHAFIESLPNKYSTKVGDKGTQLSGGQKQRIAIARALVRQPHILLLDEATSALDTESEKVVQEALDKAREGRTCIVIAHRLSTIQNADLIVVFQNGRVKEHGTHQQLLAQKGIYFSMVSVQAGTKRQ

CC[C@]1(O)C[C@H]2CN(CCc3c([nH]c4ccccc34)[C@@](C(=O)OC)(c3cc4c(cc3OC)N(C=O)[C@H]3[C@@](O)(C(=O)OC)[C@H](OC(C)=O)[C@]5(CC)C=CCN6CC[C@]43[C@@H]65)C2)C1 [vincristine]
Pgp-Glo ATPase stimulation at 2 μM (membranes): verapamil and vincristine induced an obvious increase in activity of P-gp ATPase
